Key:
DENV2 = assay: In vitro anti-DENV2 post-infection assay: DENV2 RNA level by RT-qPCR in DENV2-infected Huh-7 cells; format: cell-based, DENV serotype 2 (strain 16681); details: for IC50 / EC50: Dengue virus; for IC50: DENV2, Huh-7, 72 h, read-out: IC50 (concentration of the compound resulting in a 50% inhibition in virus production); for SI (selectivity index, SI = CC50/IC50): CC50 in uninfected Huh-7 cells / IC50 against DENV2; for EC50: DENV2-infected Huh-7 cells, range over compounds 1–4
Experimental: Concerning their biological activity, the anti-DENV2 activity of polyalongarins A–D (1–4) was examined using post-infection assay. The DENV2-infected Huh-7 cells were incubated with each of 1–4 at a concentration of 5, 10, or 20 μM for 72 hrs (0.2 μM celastrol and 0.1% DMSO served as positive control and mock control, respectively). […] Based on previous reports, a compound that diminishes the DENV activity by 90% but presents a 50% cytotoxic concentration (CC50) > 15 μM is considered a “hit”. By this definition, compounds 1–4 are good hits without doubt.
(§1) Figure 5 In vitro anti-DENV2 assay for 1–4. (A) DENV2-infected/uninfected Huh-7 cells were incubated with celastrol (Cela, 0.2 μM, positive control) or indicated concentrations of 1–4 (5 to 25 μM) for 72 h. Total DENV2 RNA expression (%) was extracted and quantified. The DENV2 RNA level was measured by RT-qPCR. The DENV2 RNA expression was normalized by cellular GAPDH mRNA. (B) DENV2-infected Huh-7 cells were treated with 10 μM of 1–4. The NS2B protein expression was analyzed by western blotting with anti-NS2B and anti-GAPDH antibodies (a loading control). (C) The cell viability (%) was determined by the XTT method. Treatment with 0.1% DMSO served as a mock control. The results are expressed as the means ± standard errors of the means (SEM) of triplicate experiments.
Huh-7 human liver carcinoma cell line, purchased from Bioresources Collection and Research Center, Taiwan, were maintained in Dulbecco’s modified Eagle’s medium (DMEM) supplemented with 10% fetal bovine serum (FBS), 1% non-essential amino acids (NEAA), and 1% penicillin and streptomycin at 37 °C in a humidified 5% CO2 incubator. The DENV serotype 2 (strain 16681) was directly from the Centers for Disease Control, Department of Health, Taiwan, and was amplified in Aedes albopictus C6/36 cell line (CRL-1660, ATCC, USA). C6/36 cells were cultured in RPMI 1640 medium supplemented with 2% FBS. Huh-7 cells were seeded at a density of 5 × 10^4 cells/mL in the 24-well plate for 16–20 h and then infected with DENV2 at a multiplicity of infection (MOI) of 0.1 PFU/cell for 2 h at 37 °C. The viral titer was determined in a plaque assay in the Huh-7 cells. Then, DENV2-infected Huh-7 cells were washed with PBS and refilled, respectively, with DMEM−2% FBS medium containing […] (positive control), 0.1% DMSO (mock control), and various indicating concentration of test compounds. After incubation at 37 °C for 72 h, DENV2-infected Huh-7 cells were harvested and cell lysates were prepared for quantification of DENV RNA by RT-qPCR. Total cellular RNA was extracted using Total RNA Miniprep Purification Kit (GMbiolab, Taiwan) according to the manufacturer’s instructions.

[1] = Cytotoxic assay (XTT cell viability); format: cell-based; details: human, uninfected Huh-7 cells, read-out: CC50 (concentration of the compound causing a 50% growth inhibition of uninfected Huh-7 cells)
Experimental: as §1
In structural elucidation, the optical rotations were determined using a JASCO P-1020 polarimeter (Jasco Co., Tokyo, Japan); the ultraviolet spectra (UV) were recorded on a JASCO V530 UV/VIS spectrophotometer; the circular dichroism spectroscopy (CD) were recorded on a JASCO J-815 spectrophotometer; the infrared spectra (IR) were recorded on a Mattson Genesis II FT-IR spectrophotometer (Thermo Nicolet, Madison, WI, USA); electrospray ionization mass (ESIMS) and high-resolution ESIMS data were measured using a VG Biotech Quattro 5022 mass spectrometer (VG Biotech, UK); nuclear magnetic resonance (NMR) spectra were collected on a Varian Unity Inova-400 MHz NMR system; the single crystal X-ray diffraction of pure compounds was determined by Bruker APEX II X-ray single crystal diffractometer. In chemical isolation and separation, column chromatography (CC) was applied including silica gel 60 (70–230 and 230–400 mesh, Merck, Darmstadt, Germany), Sephadex LH-20 (Pharmacia), and pre-coated silica gel TLC plates (aluminum Merck Silica gel 60 F254). […] In biological evaluation, cell viability/cytotoxicity assay was evaluated using CellTiter 96 AQueous One Solution Cell Proliferation Assay (Promega, Madison, WI, USA) according to the manufacturer’s instructions, where the color intensity was detected at 490 nm using a 550 BioRad plate-reader for determining the number of viable cells in proliferation. Computational modeling analyzed by PyMOL 2.0 software (creator is Warren L. DeLano; published by Schrödinger, Inc. 2017; and the latest vision is PyMOL 2.5 vision).
Huh-7 cells were seeded in 96-well plates at a density 5 × 10^4 cells/well in 120 μL of culture medium and incubated for 6 hr in a humidified CO2 (5%) atmosphere. […] Then, the XTT method was applied to cell viability evaluation: cells were dyed by 2,3-bis(2-methyloxy-4-nitro-5-sulfophenyl)-2H-tetrazolium-5-carboxanilide and recorded by an enzyme-linked immunosorbent assay (ELISA) plate reader (at UV 490 nm). […]

SMILES	IC50 (DENV2)	CC50 at 72 h [1]	SI (selectivity index, SI = CC50/IC50) (DENV2)	EC50 (DENV2)
CC1=C(O)C(=O)C=C2C1=CC=C1[C@@]2(C)CC[C@@]2(C)[C@@H]3C[C@](C)(C(=O)O)CC[C@]3(C)CC[C@]12C [Celastrol, reference compound]	0.12 ± 0.01 µM			
COc1cc2c(cc1O)CC1c3c(cc(OC)c(OC)c3-2)CCN1C1OC(=O)C=C1CCC1(C)C(C)CCC2(C)C(C)=CCCC21 (stereo not shown) [polyalongarin C (3), Polyalongarin C]	3.24 ± 0.16 µM	69.1 ± 14 µM	21.3	2.8 to 6.4 µM
COc1c2c3c(c(OC)c1OC)-c1ccccc1C[C@H]3N([C@@H]1OC(=O)C=C1CC[C@@]1(C)[C@H](C)CC[C@@]3(C)C(C)=CCC[C@H]13)CC2 [polyalongarin B (2), Polyalongarin B]	2.8 ± 0.23 µM	50.4 ± 10.2 µM	18	2.8 to 6.4 µM
CC1=CCCC2C1(C)CCC(C)C2(C)CCC1=CC(=O)OC1N1CCc2cc3c(c4c2C1Cc1ccccc1-4)OCO3 (stereo not shown) [polyalongarin A (1), Polyalongarin A]	4.46 ± 0.12 µM	> 200 µM		2.8 to 6.4 µM
COc1cc2c3c(c1OC)C1(C=CC(=O)C=C1)C[C@H]3N([C@@H]1OC(=O)C=C1CC[C@@]1(C)[C@H](C)CC[C@@]3(C)C(C)=CCC[C@H]13)CC2 [polyalongarin D (4), Polyalongarin D]	6.36 ± 0.09 µM	94.5 ± 10.2 µM	14.9	2.8 to 6.4 µM

— publication PMC9610793, “Novel Aporphine- and Proaporphine–Clerodane Hybrids Identified from the Barks of Taiwanese Polyalthia longifolia (Sonn.) Thwaites var. pendula with Strong Anti-DENV2 Activity” (Pharmaceuticals, 2022)
